Results published in US7507860B2 (Pfizer Inc., priority 2004, dated 2009).
Residue numbers refer to the chain shown, from its start. Like-named read-outs stand apart in the source and are kept apart here.

Columns and labels:
androgen receptor = biological target: T1, androgen receptor (Homo sapiens, UniProt P10275); experiment: AR antagonist cell assay (MDA-MB453-MMTV clone 54-19 luciferase reporter, 100 pM DHT); format: cell-based; conditions: MDA-MB453-MMTV clone 54-19, inhibition of 100 pM DHT induction, 17 hr; mean of multiple tests; read-out: AR Cell IC50
T1 sequence (P10275 1-920 Q868H): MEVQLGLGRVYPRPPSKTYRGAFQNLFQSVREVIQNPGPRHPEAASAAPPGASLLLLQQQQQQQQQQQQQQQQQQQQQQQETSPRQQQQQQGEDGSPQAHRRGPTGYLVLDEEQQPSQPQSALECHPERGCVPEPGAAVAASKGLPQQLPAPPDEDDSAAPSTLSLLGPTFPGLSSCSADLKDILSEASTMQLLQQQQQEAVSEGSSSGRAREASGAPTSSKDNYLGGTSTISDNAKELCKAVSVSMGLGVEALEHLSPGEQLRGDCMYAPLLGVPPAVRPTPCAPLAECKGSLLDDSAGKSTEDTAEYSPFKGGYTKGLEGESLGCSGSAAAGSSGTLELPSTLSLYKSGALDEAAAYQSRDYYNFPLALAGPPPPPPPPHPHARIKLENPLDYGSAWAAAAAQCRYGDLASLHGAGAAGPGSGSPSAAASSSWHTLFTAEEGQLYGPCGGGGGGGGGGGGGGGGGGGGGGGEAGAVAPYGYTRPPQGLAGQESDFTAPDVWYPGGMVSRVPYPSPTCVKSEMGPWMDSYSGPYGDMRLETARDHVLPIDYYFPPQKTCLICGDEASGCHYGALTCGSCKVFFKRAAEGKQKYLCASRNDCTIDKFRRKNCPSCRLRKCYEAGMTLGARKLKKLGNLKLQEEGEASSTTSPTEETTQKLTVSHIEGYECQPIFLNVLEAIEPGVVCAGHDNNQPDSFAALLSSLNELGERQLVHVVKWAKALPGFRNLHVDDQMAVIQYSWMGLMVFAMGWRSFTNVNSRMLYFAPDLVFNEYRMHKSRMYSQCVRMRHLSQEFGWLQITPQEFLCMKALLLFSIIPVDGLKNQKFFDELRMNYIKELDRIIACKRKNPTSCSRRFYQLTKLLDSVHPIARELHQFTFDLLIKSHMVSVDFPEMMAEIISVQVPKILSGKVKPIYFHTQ
Procedure: The compounds ability to antagonize the effects of androgen on the androgen receptor were determined in a whole cell assay as described immediately below.
Experimental Procedure for AR Antagonist Cell Assay
This cell line is a stable transfected cell line with MDA-MB453 cell background (a human breast tumor cell line expressing androgen receptor). A MMTV minimal promoter containing ARE was first cloned in front of a firefly luciferase reporter gene. Then the cascade was cloned into transfection vector pUV120puro. […] Puromycin resistant stable cell line was selected. Cell Culture Media and Reagents:
Plating medium: DMEM (phenol red free), 10% charcoal treated HyClone serum, 1% L-glutamine
Assay medium: DMEM (phenol red free), 1% charcoal treated HyClone serum, 1% L-glutamine, and 1% penicillin/streptomycin
• 1. Cells are maintained in culture medium, splitting cells when they reach 80-90% confluence • 2. To test compounds, 10,000 cells/well are plated to opaque 96 cell culture plate in 100 ul/well plating medium, culture for overnight at 37° C. in cell culture incubator • 3. […] Add 10 ul/well freshly prepared DHT (final concentration at 100 pM) to each well, incubate at 37° C. for 17 hr (overnight) • 5.
The results are reported as the mean of multiple tests as described below (the numbers of tests are indicated in the footnote). N.D. denotes that the compound was not tested.

[1] = biological target: T2, human androgen receptor (hAR) (Homo sapiens, UniProt P10275); experiment: Competitive binding analysis on baculovirus/Sf9 generated hAR extracts with 3H-DHT tracer; conditions: hAR extract, 1 nM 3H-DHT, one hour at 4° C, mean of multiple tests
T2 construct: made in house; host or cells: baculovirus/Sf9 insect cells (crude extract)
T2 sequence (P10275 1-920): T1 sequence (P10275 1-920 Q868H) with H868Q
Procedure, shortened: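 Baculovirus/Sf9-expressed hAR extract incubated with hydroxylapatite, 1 nM 3H-DHT and decreasing compound concentrations for 1 h at 4 °C, then washed three times to remove unbound tracer. Bound 3H-DHT compared with no-competitor maximum; affinity given as concentration inhibiting half of maximum binding, mean of multiple tests.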

SMILES | IC50 (androgen receptor) | IC50 ([1]; read-out: AR Binding IC50) | IC50 ([1]; AR Binding IC50 (nM))
CC(C)CC(Oc1ccc(C#N)c(C(F)(F)F)c1)C(=O)NCc1ccc2c(c1)OCO2 (stereo not drawn) [Example 24, 2-(4-Cyano-3-trifluoromethyl-phenoxy)-4-methyl-pentanoic acid (benzo[1,3]dioxol-5-yl-methyl)-amide] | 799 nM | 56 nM | –
CCCC(Oc1ccc(C#N)c(C(F)(F)F)c1)C(=O)NC1CCc2ccccc21 (stereo not drawn) [Example 57, 2-(4-Cyano-3-trifluoromethyl-phenoxy)-pentanoic acid indan-1-yl-amide] | 561 nM | 146 nM | –
CC(C)CC(Oc1ccc(C#N)c(C(F)(F)F)c1)C(=O)NCCCc1cccnc1 (stereo not drawn) [Example 62, 2-(4-Cyano-3-trifluoromethyl-phenoxy)-4-methyl-pentanoic acid-(3-pyridin-3-ylpropyl)-amide] | > 1000 nM | 192 nM | –
CCCC(Oc1ccc(C#N)c(C(F)(F)F)c1)C(=O)NCc1ccccc1C (stereo not drawn) [Example 44, 2-(4-Cyano-3-trifluoromethyl-phenoxy)-pentanoic acid-2-methyl-benzylamide] | 37 nM | – | 42 nM
CCN(CCOC)C(=O)C(CC(C)C)Oc1ccc(C#N)c(C(F)(F)F)c1 (stereo not drawn) [Example 86, 2-(4-Cyano-3-trifluoromethyl-phenoxy)-4-methyl-pentanoic acid ethyl(2-methoxyethyl)-amide] | > 1000 nM | 25 nM | –
CC(C)CC(Oc1ccc(C#N)c(C(F)(F)F)c1)C(=O)NCC(C)Oc1ccccc1 (stereo not drawn) [Example 53, 2-(4-Cyano-3-trifluoromethyl-phenoxy)-4-methyl-pentanoic acid-(2-phenoxypropyl)-amide] | 299 nM | 59 nM | –
CCCC(Oc1ccc(C#N)c(C(F)(F)F)c1)C(=O)N[C@@H](C)c1ccc(O)cc1 (stereo in doubt) [Example 118, 2-(4-Cyano-3-trifluoromethyl-phenoxy)-pentanoic acid [1-(4-hydroxy-phenyl)-ethyl]-amide] | 589 nM | 1010 nM | –
CSCCNC(=O)C(CC(C)C)Oc1ccc(C#N)c(C(F)(F)F)c1 (stereo not drawn) [Example 83, 2-(4-Cyano-3-trifluoromethyl-phenoxy)-4-methyl-pentanoic acid (2-methylsulfanyl-ethyl)-amide] | > 1000 nM | 85 nM | –
CCCC(Oc1ccc(C#N)c(Cl)c1)C(=O)OCC (stereo not drawn) [Example 99, 2-(3-Chloro-4-cyano-phenoxy)-pentanoic acid ethyl ester] | 749 nM | 31 nM | –
CCSCCNC(=O)C(CC(C)C)Oc1ccc(C#N)c(C(F)(F)F)c1 (stereo not drawn) [Example 114, 2-(4-Cyano-3-trifluoromethyl-phenoxy)-4-methyl-pentanoic acid (2-ethyl sulfanyl-ethyl)-amide] | 727 nM | 102 nM | –
COc1ccc(CNC(=O)C(CC(C)C)Oc2ccc(C#N)c(C(F)(F)F)c2)cc1 (stereo not drawn) [Example 73, 2-(4-Cyano-3-trifluoromethyl-phenoxy)-4-methyl-pentanoic acid-4-methoxy-benzylamide] | 428 nM | 92 nM | –
CCCC(Oc1ccc(C#N)c(C(F)(F)F)c1)C(=O)NCCOc1ccccc1 (stereo not drawn) [Example 56, 2-(4-Cyano-3-trifluoromethyl-phenoxy)-pentanoic acid-(2-phenoxy-ethyl)-amide] | 790 nM | 157 nM | –
CCCOCCCNC(=O)C(CC(C)C)Oc1ccc(C#N)c(C(F)(F)F)c1 (stereo not drawn) [Example 85, 2-(4-Cyano-3-trifluoromethyl-phenoxy)-4-methyl-pentanoic acid (3-propoxy-propyl)-amide] | > 1000 nM | 117 nM | –
CC(C)CC(Oc1ccc(C#N)c(C(F)(F)F)c1)C(=O)NCC(c1ccccc1)N(C)C (stereo not drawn) [Example 68, 2-(4-Cyano-3-trifluoromethyl-phenoxy)-4-methyl-pentanoic acid (2-dimethylamino-2-phenyl-ethyl)-amide] | > 1000 nM | 223 nM | –
Cc1ccc(CCNC(=O)C(CC(C)C)Oc2ccc(C#N)c(C(F)(F)F)c2)cc1 (stereo not drawn) [Example 47, 2-(4-Cyano-3-trifluoromethyl-phenoxy)-4-methyl-pentanoic acid-(2-p-tolyl-ethyl)amide] | > 1000 nM | 144 nM | –
COc1ccc(CCNC(=O)C(CC(C)C)Oc2ccc(C#N)c(C(F)(F)F)c2)cc1 (stereo not drawn) [Example 9, 2-(4-Cyano-3-trifluoromethyl-phenoxy)-4-methyl-pentanoic acid [2-(4-methoxyphenyl)-ethyl]-amide] | > 1000 nM | 163 nM | –
Cc1c(O)cccc1NC(=O)C(CC(C)C)Oc1ccc(C#N)c(C(F)(F)F)c1 (stereo not drawn) [Example 84, 2-(4-Cyano-3-trifluoromethyl-phenoxy)-4-methyl-pentanoic acid (3-hydroxy-2-methyl-phenyl)-amide] | > 1000 nM | 112 nM | –
CCCC(Oc1ccc(C#N)c(C(F)(F)F)c1)C(=O)NCc1ccc2c(c1)OCO2 (stereo not drawn) [Example 29, 2-(4-Cyano-3-trifluoromethyl-phenoxy)-pentanoic acid (benzo[1,3]dioxol-5-yl-methyl)-amide] | > 1000 nM | 180 nM | –
CC(C)CC(Oc1ccc(C#N)c(C(F)(F)F)c1)C(=O)N[C@@H](C)c1ccc(O)cc1 (stereo in doubt) [Example 120, 2-(4-Cyano-3-trifluoromethyl-phenoxy)-4-methyl-pentanoic acid [1-(4-hydroxy-phenyl)-ethyl]-amide] | 44 nM | 98 nM | –
COc1cccc(CCNC(=O)C(CC(C)C)Oc2ccc(C#N)c(C(F)(F)F)c2)c1 (stereo not drawn) [Example 58, 2-(4-Cyano-3-trifluoromethyl-phenoxy)-4-methyl-pentanoic acid-[2-(3-methoxyphenyl)-ethyl]-amide] | > 1000 nM | 64 nM | –
CC(C)CC(Oc1ccc(C#N)c(C(F)(F)F)c1)C(=O)NC(C)c1cccnc1 (stereo not drawn) [Example 15, 2-(4-Cyano-3-trifluoromethyl-phenoxy)-4-methyl-pentanoic acid (1-pyridin-3-ylethyl)-amide] | > 1000 nM | 309 nM | –
